Measured values as given in US20080207766A1, “METHODS AND COMPOSITIONS FOR TREATING AT LEAST ONE UPPER GASTROINTESTINAL SYMPTOM” (AGI Therapeutics Research Ltd., priority 2007, published 2008).
Structures can show the parent of a compound that is named as a salt.

Legend:
[1] = Pharmacokinetics of oral conventional formulation in adults (Young et al.); format: in vivo, human
Description: Bear et al., Am. J. Physiol., 186, 180-86 (1956). […] Young et al., Clinical Therapeutics, 23(4) (2001). […] The typical dose used for treating hypertensive subjects is about 25 mg/day, and is dosed using conventional formulations.

[2] = system: patients with functional diarrhea; assay: Clinical study, randomized double-blind placebo-controlled forced dose escalation, 12 weeks; format: in vivo, human
Source text: While functional diarrhea is a condition dominated by altered lower bowel function associated with chronic diarrhea, it is also associated with upper gastrointestinal related symptoms such as nausea. For instance, patients suffering from similar lower bowel functional conditions such as IBS ([…]) have a reported incidence of nausea of 32%-other conditions also have relatively high baseline incidences of nausea, i.e., functional dyspepsia 39%, oesophagitis 17%, duodenal ulcer 34%, gastric ulcer 39%, gallstone disease 28%, alcohol related dyspepsia 37%, and gastric cancer 48%. […], ABC of the Upper Gastrointestinal Tract Anorexia, Nausea, Vomiting and Pain, 323 BMJ (8 Dec. 2001). […] Eighty-two patients (both male and female) meeting ROME II criteria (modified) for Functional Diarrhea were randomized in the study. Using an intent-to-treat analysis and the entire 12 weeks of dose-escalation therapy, the incidence of nausea in the placebo group was 20%, indicating a relatively high baseline of nausea for that condition.

[3] = cited from earlier work
[4] = expected from Young et al. data, conventional formulation
[5] = 2.5 mg dose, conventional formulation, adults
[6] = 7.5 mg dose, conventional formulation, adults

SMILES	expected peak plasma concentration ([1]; about 25 mg/day dose for hypertensive subjects, conventional formulations)	24 hour plasma concentration level as share of peak plasma concentration [1, 4]	time for which about 50% of the peak plasma concentration is maintained [1, 4]	changes in blood pressure ([2]; FIGS. 1 and 2, over the course of the study)	incidence of nausea ([2]; intent-to-treat, entire 12 weeks, once daily 2 then 4 then 6 mg/day, placebo 20%)	maximum plasma concentration (Cmax) [3, 5]	time to achieve the highest plasma concentration (Tmax) [3, 5]	Cmax [3, 6]	Tmax [3, 6]	absorption from the gastrointestinal tract ([3]; dosed orally, conventional formulations (Bear et al.))
CNC1(C)C2CCC(C2)C1(C)C (racemic) [mecamylamine]	about 78.9 ng/mL	less than 25%	about 14 hours	no clinically significant changes	9%	–	–	–	–	–
CNC1(C)C2CCC(C2)C1(C)C (stereo not shown) [mecamylamine hydrochloride, N-2,3,3-tetramethylbicyclo[2.2.1]heptan-2-amine hydrochloride]	–	–	–	–	–	about 7.89 ng/mL	3.11 h	23.68 ng/mL	3.04 h	nearly completely and rapidly absorbed
